Data: ChEMBL document CHEMBL5030532, “Synthesis and Evaluation of Galloyl Conjugates of Flavanones as BMP-2 Upregulators with Promising Bone Anabolic and Fracture Healing Properties” (J Med Chem, 2021)
Active and inactive are the calls of the source. The rule behind the calls is not given here.

Columns and labels:
[1] = Induction of osteogeneis in rat calvarial osteoblast cells assessed as fold upregulation of ALP gene expression at 100 pM measured after 48 hrs by qPCR analysis relative to control; format: functional
[2] = test system: Calvarial osteoblast; experiment: Induction of mineralization in rat Calvarial osteoblast cells measured at 10 nM measured for 14 days by Cetylpyridinium chloride method; format: functional, tissue-based; details: time 14.0 day
[3] = test system: Calvarial osteoblast; experiment: Induction of osteoblast differentiation in rat Calvaria osteoblast cells measured assessed as maximal increase in alkaline phosphatase activity incubated for 48 hrs using PNPP as substrate; format: functional
[4] = test system: Calvarial osteoblast; experiment: Induction of osteogenesis in rat calvarial osteoblast cells assessed as fold upregulation of BMP-2 gene expression at 10 nM measured after 48 hrs by qPCR analysis relative to control; format: functional
[5] = test system: Calvarial osteoblast; experiment: Cytotoxicity against rat Calvarial osteoblast cells assessed as viable cells measured at 0.000001 to 1 uM measure after 48 hrs by cell viability assay; format: cell-based; details: dose lower 1e-06 µM, dose upper 1 µM
[6] = Induction of osteogeneis in rat calvarial osteoblast cells assessed as fold upregulation of Col1 gene expression at 10 nM measured after 48 hrs by qPCR analysis relative to control; format: functional
[7] = Induction of osteogeneis in rat calvarial osteoblast cells assessed as fold upregulation of RUNX2 gene expression at 10 nM measured after 48 hrs by qPCR analysis relative to control; format: functional
[8] = test system: Calvarial osteoblast; experiment: Induction of rat Calvarial osteoblast cell proliferation at 0.000001 to 1 uM measured after 48 hrs by MTT assay; format: functional, tissue-based; details: dose lower 1e-06 µM, dose upper 1.0 µM
[9] = test system: Calvarial osteoblast; experiment: (§1) Induction of osteogeneis in rat calvarial osteoblast cells assessed as fold upregulation of Col1 gene expression at 1 pM measured after 48 hrs by qPCR analysis relative to control; format: functional
[10] = Induction of osteogeneis in rat calvarial osteoblast cells assessed as fold upregulation of RUNX2 gene expression at 1 pM measured after 48 hrs by qPCR analysis relative to control; format: functional
[11] = Induction of osteogeneis in rat calvarial osteoblast cells assessed as fold upregulation of ALP gene expression at 1 pM measured after 48 hrs by qPCR analysis relative to control; format: functional
[12] = Induction of osteogeneis in rat calvarial osteoblast cells assessed as fold upregulation of BMP-2 gene expression at 1 pM measured after 48 hrs by qPCR analysis relative to control; format: functional
[13] = test system: Calvarial osteoblast; experiment: Induction of mineralization in rat Calvarial osteoblast cells measured at 100 pM measured for 14 days by Cetylpyridinium chloride method; format: functional, tissue-based; details: time 14.0 day
[14] = Induction of osteogeneis in rat calvarial osteoblast cells assessed as fold upregulation of Col1 gene expression at 100 pM measured after 48 hrs by qPCR analysis relative to control; format: functional
[15] = Induction of osteogeneis in rat calvarial osteoblast cells assessed as fold upregulation of BMP-2 gene expression at 100 pM measured after 48 hrs by qPCR analysis relative to control; format: functional
[16] = test system: Calvarial osteoblast; experiment: Induction of osteoblast differentiation in rat Calvaria osteoblast cells measured assessed as increase in alkaline phosphatase activity at 10 pM incubated for 48 hrs using PNPP as substrate; format: functional, cell-based
[17] = test system: Calvarial osteoblast; experiment: Induction of osteoblast differentiation in rat Calvaria osteoblast cells measured assessed as increase in alkaline phosphatase activity at 1 pM incubated for 48 hrs using PNPP as substrate; format: functional, cell-based
[18] = test system: Calvarial osteoblast; experiment: Induction of osteoblast differentiation in rat Calvaria osteoblast cells measured assessed as increase in alkaline phosphatase activity at 0.000001 to 1 uM incubated for 48 hrs using PNPP as substrate; format: functional, cell-based; details: dose lower 1e-06 µM, dose upper 1.0 µM
[19] = Clearance in Sprague-Dawley rat at 10 mg/kg, po by LC-MS/MS analysis; format: ADME, organism-based; details: in vivo
[20] = Volume of distribution in Sprague-Dawley rat at 5 mg/kg, po by LC-MS/MS analysis; format: ADME, organism-based; details: in vivo
[21] = MRT in Sprague-Dawley rat at 10 mg/kg, po by LC-MS/MS analysis; format: ADME, organism-based; details: in vivo
[22] = Induction of bone regeneration in adult rat femur osteotomy model assessed as fold increase in Col1 gene expression in fracture calluses measured at 5 mg/kg, po for 14 days by […] relative to control; format: functional; details: time 14 day
[23] = Cmax in Sprague-Dawley rat at 5 mg/kg, po by LC-MS/MS analysis; format: ADME, organism-based; design: route oral, dose 5 mg/kg; details: in vivo
[24] = Induction of bone regeneration in adult rat femur osteotomy model assessed as fold increase in OCN expression in fracture calluses measured at 5 mg/kg, po for 14 days by […] relative to control; format: functional; details: time 14 day
[25] = Stability in rat liver microsomes after 1 hr incubation by LC-MS/MS analysis; format: ADME, Microsome
[26] = test system: Rattus norvegicus; experiment: Induction of bone regeneration in adult rat femur osteotomy model assessed as increase in bone volume/tissue volume fraction measured at 5 mg/kg, po for 14 days by microCT analysis relative to control; format: functional; details: time 14 day
[27] = Clearance in Sprague-Dawley rat at 5 mg/kg, po by LC-MS/MS analysis; format: ADME, organism-based; details: in vivo
[28] = test system: Rattus norvegicus; experiment: In vivo induction of osteogenic activity in neonatal rat pups assessed as fold increase in BMP-2 gene expression in calvarial tissue at 5 mg/kg, sc administered for 6 days; format: functional, organism-based; details: Calvaria, time 6.0 day
[29] = test system: Rattus norvegicus; experiment: Induction of bone regeneration in adult rat femur osteotomy model assessed as increase in trabecular thickness measured at 5 mg/kg, po for 14 days by microCT analysis relative to control; format: functional, organism-based; details: time 14.0 day
[30] = test system: Rattus norvegicus; experiment: Induction of new bone formation in rat pups assessed as mineralized bone formation in calvaria by measuring bone formation rate at 5 mg/kg, sc measured after 5 days by fluorescent microscopy by relative to control; format: functional, organism-based; details: time 5.0 day
[31] = In vivo induction of osteogenic activity in neonatal rat pups assessed as fold increase in RUNX2 gene expression in calvarial tissue at 5 mg/kg, sc administered for 6 days; format: functional, Calvaria; details: time 6 day
[32] = Half life in Sprague-Dawley rat at 5 mg/kg, po by LC-MS/MS analysis; format: ADME, organism-based; details: in vivo
[33] = Volume of distribution in Sprague-Dawley rat at 10 mg/kg, po by LC-MS/MS analysis; format: ADME, organism-based; details: in vivo
[34] = as §1; format: functional
[35] = In vivo induction of osteogenic activity in neonatal rat pups assessed as fold increase in OCN gene expression in calvarial tissue at 5 mg/kg, sc administered for 6 days; format: functional, Calvaria; details: time 6 day
[36] = test system: Rattus norvegicus; experiment: Induction of bone regeneration in adult rat femur osteotomy model assessed as restoration of bone morphology measured at 5 mg/kg, po for 14 days by toluidine blue staining based analysis; format: functional, organism-based; details: time 14.0 day
[37] = test system: Rattus norvegicus; experiment: Induction of new bone formation in rat pups assessed as mineralized bone formation in calvaria by measuring increase in calvarial thickness at 5 mg/kg, sc measured after 5 days by Hematoxylin and eosin staining based quantitative histology; format: functional, organism-based; details: time 5.0 day
[38] = Stability of the compound in simulated intestinal acid at pH 6.5 measured after 1 hr by LC-MS/MS analysis; format: ADME; details: read-out: Stability
[39] = test system: Rattus norvegicus; experiment: Induction of new bone formation in rat pups assessed as mineralized bone formation in calvaria by measuring bone formation rate at 10 mg/kg, sc measured after 5 days by fluorescent microscopy by relative to control; format: functional, organism-based; details: time 5.0 day
[40] = In vivo induction of osteogenic activity in neonatal rat pups assessed as fold increase in OCN gene expression in calvarial tissue at 10 mg/kg, sc administered for 6 days; format: functional, Calvaria; details: time 6 day
[41] = test system: Rattus norvegicus; experiment: Induction of bone regeneration in adult rat femur osteotomy model assessed as increase in trabecular number measured at 5 mg/kg, po for 14 days by microCT analysis relative to control; format: functional, organism-based; details: time 14.0 day
[42] = test system: Calvarial osteoblast; experiment: Induction of osteoblast differentiation in rat Calvaria osteoblast cells measured assessed as increase in alkaline phosphatase activity at 0.000001 to 1 uM incubated for 48 hrs using PNPP as substrate in presence of noggin; format: functional, cell-based; details: dose lower 1e-06 µM, dose upper 1.0 µM
[43] = AUC in Sprague-Dawley rat at 5 mg/kg, po by LC-MS/MS analysis; format: ADME, organism-based; design: dose 5 mg/kg; details: in vivo
[44] = test system: Calvarial osteoblast; experiment: Induction of osteogeneis in rat calvarial osteoblast cells assessed as upregulation of RUNX2 protein expression at 1 pM measured after 48 hrs by immunoblotting analysis; format: functional, tissue-based
[45] = MRT in Sprague-Dawley rat at 5 mg/kg, po by LC-MS/MS analysis; format: ADME, organism-based; details: in vivo
[46] = test system: Calvarial osteoblast; experiment: Induction of osteogenesis in rat calvarial osteoblast cells assessed as upregulation of BMP-2 protein expression at 1 pM measured after 48 hrs by immunoblotting analysis; format: functional, cell-based
[47] = Stability in rat plasma after 1 hr incubation by LC-MS/MS analysis; format: ADME, cell-free; details: read-out: Stability
[48] = Half life in Sprague-Dawley rat at 10 mg/kg, po by LC-MS/MS analysis; format: ADME, organism-based; details: in vivo
[49] = Cmax in Sprague-Dawley rat at 10 mg/kg, po by LC-MS/MS analysis; format: ADME, organism-based; design: route oral, dose 10 mg/kg; details: in vivo
[50] = Stability of the compound in simulated gastric acid at pH 1.2 measured after 1 hr by LC-MS/MS analysis; format: ADME; details: read-out: Stability
[51] = test system: Rattus norvegicus; experiment: Induction of bone regeneration in adult rat femur osteotomy model assessed as increase in calcein labeled callus measured at 5 mg/kg, po for 14 days by calcein labeling study relative to control; format: functional; details: time 14 day
[52] = AUC in Sprague-Dawley rat at 10 mg/kg, po by LC-MS/MS analysis; format: ADME, organism-based; design: dose 10 mg/kg; details: in vivo
[53] = test system: Rattus norvegicus; experiment: Induction of new bone formation in rat pups assessed as mineral apposition rate in calvaria at 5 mg/kg, sc measured after 5 days by fluorescent microscopy by relative to control; format: functional, organism-based; details: time 5.0 day
[54] = test system: Calvarial osteoblast; experiment: Induction of mineralization in rat Calvarial osteoblast cells measured at 1 pM measured for 14 days by Cetylpyridinium chloride method; format: functional, tissue-based; details: time 14.0 day

## COc1cc(C(=O)Nc2ccc3c(c2)C(O)CC(c2cccc(C)c2)O3)cc(OC)c1OC (stereo not given)
[1]
  fold change (FC): 2.3
[2]
  Activity: Active
[3]
  ECmax: 100 pM
[4]
  fold change (FC): 1.83
[5]
  Activity: Non-Toxic
[6]
  fold change (FC): 1.55
[7]
  fold change (FC): 1.8
[8]
  Activity: Active

## COc1cc(C(=O)Nc2ccc3c(c2)C(=O)CC(c2ccc(C(C)(C)C)cc2)O3)cc(OC)c1OC (stereo not given)
[2]
  Activity: Active
[3]
  ECmax: 10 pM
[9]
  Activity: inactive
[10]
  fold change (FC): 1.9
[5]
  Activity: Non-Toxic
[11]
  fold change (FC): 2.8
[8]
  Activity: Toxic
[12]
  fold change (FC): 1.7

## COc1cc(C(=O)Nc2ccc3c(c2)C(=O)CC(c2ccccc2)O3)cc(OC)c1OC (stereo not given)
[13]
  Activity: Active
[14]
  fold change (FC): 1.8
[1]
  fold change (FC): 1.3
[3]
  ECmax: 10 pM
[10]
  fold change (FC): 2
[5]
  Activity: Non-Toxic
[15]
  fold change (FC): 1.9

## COc1cc(C(=O)O)cc(OC)c1OC
[16]
  Activity: Active
[17]
  Activity: Active

## COc1cccc(C2CC(=O)c3cc([N+](=O)[O-])ccc3O2)c1 (stereo not given)
[16]
  Activity: Active
[17]
  Activity: Active

## COc1cccc([C@@H]2CC(=O)c3cc(NC(=O)c4cc(OC)c(OC)c(OC)c4)ccc3O2)c1
[18]
  Activity: Active

## COc1cccc([C@H]2CC(=O)c3cc(NC(=O)c4cc(OC)c(OC)c(OC)c4)ccc3O2)c1
[18]
  Activity: Active

## O=C(O)c1cc(O)c(O)c(O)c1
[16]
  Activity: Active
[17]
  Activity: Active

## COc1cccc(C2CC(=O)c3cc(NC(=O)c4cc(OC)c(OC)c(OC)c4)ccc3O2)c1 (racemic)
[19]
  CL/F: 25.7 mL/min/kg
[16]
  Activity: Active
[20]
  Vdss: 8.42 L/kg
[21]
  MRT: 9.17 h
[22]
  fold change (FC): 2.5
[23]
  Cmax: 736 ng/mL
[24]
  fold change (FC): 2.2
[25]
  Stability: Stable
[3]
  ECmax: 1000 pM
[26]
  Activity: 44.3%
[27]
  CL/F: 17.3 mL/min/kg
[28]
  Activity: Dose-Dependent Effect
[29]
  Activity: Active
[30]
  Activity: Active
[31]
  fold change (FC): 2
[32]
  half-life: 5.6 h
[33]
  Vdss: 12.99 L/kg
[34]
  fold change (FC): 2.9
[35]
  fold change (FC): 18
[36]
  Activity: Active
[37]
  Activity: Active
[38]
  remaining at 1 h: 88%
[39]
  Activity: Active
[10]
  fold change (FC): 3.7
[40]
  fold change (FC): 10
[17]
  Activity: Active
[5]
  Activity: Non-Toxic
[41]
  Activity: Active
[42]
  Activity: inactive
[11]
  fold change (FC): 5.5
[43]
  AUC: 4820 ng·h/mL
[44]
  Activity: Active
[45]
  MRT: 7.68 h
[46]
  Activity: Active
[47]
  remaining at 1 h: 89%
[8]
  Activity: Toxic
[48]
  half-life: 5.85 h
[12]
  fold change (FC): 4.4
[49]
  Cmax: 858 ng/mL
[50]
  remaining at 1 h: 69%
[51]
  Activity: 130%
[52]
  AUC: 6530 ng·h/mL
[53]
  Activity: inactive
[54]
  Activity: Active
